Measured values: article PMC12220852, “An adamantane‐based ligand as a novel chemical tool for thermosensory TRPM8 channel therapeutic modulation” (The Febs Journal, 2025)
Where “and” joins values, the source holds several entries; their conditions need not be identical. Identical values can stand only once.

What was measured:
hTRPV1 = molecular target: T1, hTRPV1 (Homo sapiens, UniProt Q8NER1); test: Whole-cell patch-clamp of capsaicin-evoked currents in HEK293 cells expressing hTRPV1; type: cell-based; details: −60 mV
T1 construct: expressed in transfected cells; host or cells: HEK293 (transient, Lipofectamine 3000)
Method: To evaluate receptor selectivity, we investigated the activity of compound 23 on recombinant hTRPV1 and hTRPA1 channels recombinantly expressed in HEK293 cells (Fig. 4). We choose these thermosensory channels because of their structural similarity and expression in peripheral nociceptive terminals. In addition, some ligand cross‐interaction within these channels has been reported.
Recording through patch‐clamp techniques was performed on HEK293 cells cultured in DMEM GlutaMax with 10% FBS and 1% P/S. The cell lines were authenticated following the standardization of STR Profiling guidelines (ANSI/ATCC ASN‐0002‐2022) using the CLA Identifier Plus PCR Amplification Kit (Thermo Fisher‐A44660) to analyze 16 highly variant human STRs. The cells were confirmed to be mycoplasma‐free. These cells were transiently transfected with plasmids encoding hTRPV1, hTRPM8, or hTRPA1 using Lipofectamine 3000. Transfected cells were seeded on 12 mm Ø glass coverslips treated with poly‐L‐lysine solution and recorded 2 days post‐transfection. […] Leak currents were not subtracted, and conductance was calculated using the equation: G = I/(V − V r), where I is the measured ionic current, V is the applied voltage, and V r is the reversal potential that for the ionic conditions used was set to 0 mV. […]

[1] = molecular target: T2, recombinant human TRPM8 stably expressed in HEK293 cells (hTRPM8) (Homo sapiens, UniProt Q7Z2W7); test: Ca2+ microfluorimetry screen for agonist/antagonist activity in hTRPM8-HEK293 cells; type: cell-based; details: agonists vs WS-12, antagonists vs WS-12 response, read-out: Efficacy (percentage of maximal activation or blockade)
T2 construct: expressed in transfected cells
T2 sequence (Q7Z2W7 whole entry): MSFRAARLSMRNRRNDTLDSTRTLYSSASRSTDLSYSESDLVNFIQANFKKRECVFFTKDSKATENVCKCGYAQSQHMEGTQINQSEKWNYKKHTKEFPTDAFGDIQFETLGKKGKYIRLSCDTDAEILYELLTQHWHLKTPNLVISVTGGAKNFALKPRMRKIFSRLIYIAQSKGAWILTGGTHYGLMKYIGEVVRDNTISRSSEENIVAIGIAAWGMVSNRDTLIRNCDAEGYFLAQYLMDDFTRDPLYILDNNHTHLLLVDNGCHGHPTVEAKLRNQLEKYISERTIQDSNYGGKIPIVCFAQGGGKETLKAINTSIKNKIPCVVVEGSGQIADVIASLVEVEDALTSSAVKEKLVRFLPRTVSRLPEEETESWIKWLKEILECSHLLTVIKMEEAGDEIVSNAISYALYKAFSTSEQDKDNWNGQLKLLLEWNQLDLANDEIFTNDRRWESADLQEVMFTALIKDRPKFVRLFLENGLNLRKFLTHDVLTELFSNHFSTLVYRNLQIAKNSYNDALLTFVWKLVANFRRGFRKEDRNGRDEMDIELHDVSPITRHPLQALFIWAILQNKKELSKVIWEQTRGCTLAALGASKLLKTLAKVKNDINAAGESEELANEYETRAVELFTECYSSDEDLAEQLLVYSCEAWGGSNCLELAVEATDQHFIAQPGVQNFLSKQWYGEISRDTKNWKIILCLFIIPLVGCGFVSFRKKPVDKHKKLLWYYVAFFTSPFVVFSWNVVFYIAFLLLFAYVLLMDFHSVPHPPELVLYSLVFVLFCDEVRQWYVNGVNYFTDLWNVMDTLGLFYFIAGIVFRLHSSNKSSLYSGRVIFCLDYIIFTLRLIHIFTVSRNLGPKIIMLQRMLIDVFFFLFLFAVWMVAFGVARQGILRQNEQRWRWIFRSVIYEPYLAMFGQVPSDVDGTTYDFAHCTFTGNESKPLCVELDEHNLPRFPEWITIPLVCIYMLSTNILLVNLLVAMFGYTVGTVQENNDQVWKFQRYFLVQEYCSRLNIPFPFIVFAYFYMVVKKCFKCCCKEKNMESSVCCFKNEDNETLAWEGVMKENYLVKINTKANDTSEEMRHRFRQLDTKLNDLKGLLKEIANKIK

T1 sequence (Q8NER1 whole entry): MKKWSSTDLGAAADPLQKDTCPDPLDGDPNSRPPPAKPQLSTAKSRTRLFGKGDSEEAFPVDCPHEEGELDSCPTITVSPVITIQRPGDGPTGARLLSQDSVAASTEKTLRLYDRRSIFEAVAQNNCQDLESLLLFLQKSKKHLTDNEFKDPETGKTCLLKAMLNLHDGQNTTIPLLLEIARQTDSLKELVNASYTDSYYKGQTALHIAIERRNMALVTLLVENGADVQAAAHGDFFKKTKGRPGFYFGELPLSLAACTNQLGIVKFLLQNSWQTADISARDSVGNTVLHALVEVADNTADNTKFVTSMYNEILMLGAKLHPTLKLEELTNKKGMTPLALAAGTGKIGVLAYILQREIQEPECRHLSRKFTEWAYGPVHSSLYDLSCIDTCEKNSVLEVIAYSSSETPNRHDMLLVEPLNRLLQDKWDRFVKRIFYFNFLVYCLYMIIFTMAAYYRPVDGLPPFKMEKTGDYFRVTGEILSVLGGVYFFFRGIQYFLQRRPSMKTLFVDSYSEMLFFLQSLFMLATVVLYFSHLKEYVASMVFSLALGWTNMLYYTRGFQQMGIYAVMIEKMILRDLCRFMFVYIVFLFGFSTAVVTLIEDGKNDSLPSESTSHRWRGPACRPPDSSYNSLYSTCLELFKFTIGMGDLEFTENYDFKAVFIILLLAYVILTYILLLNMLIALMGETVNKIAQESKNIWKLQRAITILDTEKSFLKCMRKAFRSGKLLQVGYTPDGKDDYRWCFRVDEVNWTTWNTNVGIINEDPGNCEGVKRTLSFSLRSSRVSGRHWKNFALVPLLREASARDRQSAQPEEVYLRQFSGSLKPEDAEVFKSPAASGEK

block of hTRPV1‐channel activity (hTRPV1; 1 μM compound, 0.5 μM capsaicin): ≈ 50%
IC50 (hTRPV1; capsaicin-evoked current, n = 6, read-out: IC50 of hTRPV1 current blockade): 1100 nM and 1000 nM
Emax [1]: 100%
SMILES: O=C(COC(=O)c1ccccc1-c1ccccc1)NC12CC3CC(CC(C3)C1)C2 [Compound 23, 2‐((3S,5S,7S)‐adamantan‐1‐ylamino)‐2‐oxoethyl [1,1′‐biphenyl]‐2‐carboxylate]
